Assay results taken from US11548900B2, “Oxazino-quinazoline and oxazino-quinoline type compound, preparation method and uses thereof” (BEIJING SCITECH-MQ PHARMACEUTICALS LIMITED, priority 2018, dated 2023).

Key:
BT474 cells = experiment: Inhibition of cell proliferation, BT474 (CCK-8, 72 h); type: cell-based; conditions: Homo sapiens, BT-474, 72 h incubation
Experimental: (§1) The assay for the inhibition of cell proliferation by small molecular compounds was carried out using the method as follows:
(§2) 1. 600 μL pancreatin was added to a T75 cell culture flask, which was digested in a 37° C. incubator for about 1 min before 5 mL of DMEM complete culture solution was added, blew evenly, transferred to a 15 mL centrifuge tube, and centrifuged at 1000 rpm for 4 min;
(§3) 2. The supernatant was removed and 5 mL DMEM complete culture solution was added, blew evenly, and 10 μL cell suspension was taken and mixed with 10 μL 0.4% Trypan Blue, and counted using a cell counter;
(§4) 3. BT474 and HCC827 cell lines were seeded in 96-well plates at a cell density of 10,000 and 3000 cells/well/80 μL, respectively, and cultured overnight. Only sterile water was added to the 36 wells on the periphery of the 96-well plate without adding cells, and only the 60 wells in the center of the 96-well plate were used for cell assays and controls;
(§5) 4. Dilution of compounds: the compounds were diluted with a 3-fold dilution to make 10 concentrations in total with an initial concentration of 10 mM;
(§6) 5. 20 μL of different compounds with different concentrations were added to each well, and 20 μL of complete culture solution was added to the remaining wells. The final concentration of DMSO in each well is 0.25%;
(§7) 6. After 72 h of incubation, 10 μL CCK-8 reagent was added to each well, and incubated at 37° C. for 1-2 h; and the OD value was read at 450 nm;
(§8) 7. Cell survival rate (%)=[(As−Ab)/(Ac−Ab)]*100%
(§9) As: Assay well (medium containing cell, CCK-8, compound)
(§10) Ac: Control well (medium containing cell, CCK-8)
(§11) Ab: Blank well (CCK-8, medium without cell and compound)
(§12) 8. The value was imported into Graphpad Prism5 software for the calculation of IC50s (compound concentration at which 50% maximum survival rate is observed).

HER2 kinase = HER2 kinase (Homo sapiens (Human), UniProt P04626); experiment: Inhibition of HER2 kinase activity (ULight-labeled PolyGT substrate); type: biochemical; conditions: HER2 kinase 10 nM, ATP 10 μM, 2 hours
HER2 kinase, sequence (P04626 23-1255): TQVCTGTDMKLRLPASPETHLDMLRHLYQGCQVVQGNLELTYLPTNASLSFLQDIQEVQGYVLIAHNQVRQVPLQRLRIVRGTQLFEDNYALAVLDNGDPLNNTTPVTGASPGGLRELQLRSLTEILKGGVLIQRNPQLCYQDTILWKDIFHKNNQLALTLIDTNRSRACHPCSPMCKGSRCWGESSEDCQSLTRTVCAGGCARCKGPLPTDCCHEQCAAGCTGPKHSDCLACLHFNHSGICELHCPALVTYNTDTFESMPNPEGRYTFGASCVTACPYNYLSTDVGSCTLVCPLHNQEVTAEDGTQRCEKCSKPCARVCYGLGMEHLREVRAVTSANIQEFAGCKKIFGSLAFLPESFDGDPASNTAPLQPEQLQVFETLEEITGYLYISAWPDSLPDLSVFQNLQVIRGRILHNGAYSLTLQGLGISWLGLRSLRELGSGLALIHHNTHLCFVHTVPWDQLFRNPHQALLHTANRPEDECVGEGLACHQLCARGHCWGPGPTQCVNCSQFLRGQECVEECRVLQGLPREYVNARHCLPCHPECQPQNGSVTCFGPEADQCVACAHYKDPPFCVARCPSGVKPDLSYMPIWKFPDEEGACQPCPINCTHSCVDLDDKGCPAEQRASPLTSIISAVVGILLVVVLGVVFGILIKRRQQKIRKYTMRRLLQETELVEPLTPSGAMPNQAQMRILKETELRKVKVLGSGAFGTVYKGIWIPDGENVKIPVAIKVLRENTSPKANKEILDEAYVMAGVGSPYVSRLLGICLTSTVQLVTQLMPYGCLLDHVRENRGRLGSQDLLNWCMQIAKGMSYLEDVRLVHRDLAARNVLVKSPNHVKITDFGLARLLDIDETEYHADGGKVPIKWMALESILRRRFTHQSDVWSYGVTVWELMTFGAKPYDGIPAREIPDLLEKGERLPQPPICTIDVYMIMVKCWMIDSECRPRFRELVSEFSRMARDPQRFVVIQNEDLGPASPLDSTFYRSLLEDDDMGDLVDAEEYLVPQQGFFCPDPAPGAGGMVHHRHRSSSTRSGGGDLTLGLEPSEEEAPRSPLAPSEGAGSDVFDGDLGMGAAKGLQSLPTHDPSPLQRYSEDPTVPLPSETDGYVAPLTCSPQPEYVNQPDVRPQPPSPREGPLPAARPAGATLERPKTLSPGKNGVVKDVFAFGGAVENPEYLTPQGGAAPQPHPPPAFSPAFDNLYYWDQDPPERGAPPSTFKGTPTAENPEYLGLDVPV
Procedure, shortened: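 HER2 kinase at 10 nM with 10 μM ATP and 100 nM ULight-PolyGT, 5 min enzyme–compound preincubation, then 2 h reaction at room temperature in the dark. Compounds at 11 3-fold concentrations, 2.5 μM top to 0.042 nM, 1% DMSO, duplicates. TR-FRET 665/615 ratio; IC50 from inhibition versus DMSO and no-compound controls.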

HCC827 cells = experiment: Inhibition of cell proliferation, HCC827 (CCK-8, 72 h); type: cell-based; conditions: Homo sapiens, 72 h incubation
Experimental: as §1, §2, §3, §4, §5, §6, §7, §8, §9, §10, §11, §12

EGFR kinase = EGFR kinase (Homo sapiens (Human), UniProt P00533); experiment: Inhibition of EGFR kinase activity (ULight-labeled JAK-1 (Tyr1023) peptide substrate); type: biochemical; conditions: EGFR kinase 0.35 nM, ATP 150 μM, 2 hours
EGFR kinase, sequence (P00533 25-1210): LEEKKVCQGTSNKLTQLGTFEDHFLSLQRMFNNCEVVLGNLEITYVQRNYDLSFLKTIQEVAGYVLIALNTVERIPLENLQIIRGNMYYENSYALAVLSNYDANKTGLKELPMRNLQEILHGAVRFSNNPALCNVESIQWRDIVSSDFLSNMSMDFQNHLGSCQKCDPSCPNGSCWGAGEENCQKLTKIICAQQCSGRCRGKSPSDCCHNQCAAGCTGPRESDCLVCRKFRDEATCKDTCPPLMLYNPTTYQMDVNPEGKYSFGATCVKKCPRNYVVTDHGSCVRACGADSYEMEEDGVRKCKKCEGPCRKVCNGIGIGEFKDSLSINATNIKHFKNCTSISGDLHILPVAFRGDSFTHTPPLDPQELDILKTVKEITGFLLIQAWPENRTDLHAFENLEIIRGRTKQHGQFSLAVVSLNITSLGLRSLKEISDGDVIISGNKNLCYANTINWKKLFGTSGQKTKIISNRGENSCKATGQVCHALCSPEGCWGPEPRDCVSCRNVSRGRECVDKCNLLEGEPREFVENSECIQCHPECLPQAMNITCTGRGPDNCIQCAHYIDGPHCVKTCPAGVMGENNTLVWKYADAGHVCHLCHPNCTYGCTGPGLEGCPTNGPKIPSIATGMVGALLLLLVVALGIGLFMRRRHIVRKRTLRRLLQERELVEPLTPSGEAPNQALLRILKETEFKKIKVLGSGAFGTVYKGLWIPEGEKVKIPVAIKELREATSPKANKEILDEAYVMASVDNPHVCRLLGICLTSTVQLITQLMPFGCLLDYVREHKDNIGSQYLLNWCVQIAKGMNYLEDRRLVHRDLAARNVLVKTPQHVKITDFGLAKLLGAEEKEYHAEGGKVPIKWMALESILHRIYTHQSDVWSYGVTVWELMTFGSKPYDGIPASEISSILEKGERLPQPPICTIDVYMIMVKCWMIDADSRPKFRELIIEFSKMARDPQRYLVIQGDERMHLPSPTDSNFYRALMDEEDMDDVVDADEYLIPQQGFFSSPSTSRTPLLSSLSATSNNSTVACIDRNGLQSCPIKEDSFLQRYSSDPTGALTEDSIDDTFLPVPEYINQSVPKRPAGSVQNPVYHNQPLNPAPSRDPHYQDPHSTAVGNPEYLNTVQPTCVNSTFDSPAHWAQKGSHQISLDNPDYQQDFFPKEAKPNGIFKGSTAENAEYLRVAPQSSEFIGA
Experimental: The assay for the inhibition of EGFR and HER2 kinase activity by small molecular compounds was carried out using the method as follows:
1) Dilution of the compounds
In a 96-well plate a, the compounds were diluted with DMSO using a 3-fold gradient dilution to form 11 concentrations, the 12th concentration is pure DMSO (as a positive control); and in a new 96-well plate b the above solutions were diluted 25 times with ultrapure water (DMSO concentration is 4%).
2) Transferring the compounds to 384-well plate
The compound solutions diluted with ultrapure water in the 96-well plate b above was transferred to the corresponding wells of a 384-well plate in duplicate.
3) Addition of 4×kinase solution: 2.5 μl of the above 4× kinase solution was taken using multichannel pipette and added to the corresponding reaction wells of the 384-well plate, mixed well and pre-reacted at room temperature for 5 minutes.
4) Addition of 2×substrate/ATP mixed solution: 5 μl of the above 2×substrate/ATP mixed solution was taken using multichannel pipette and added to the corresponding reaction wells of the 384-well plate.
5) Negative control: negative control wells were set in the 384-well plate, and 2.5 μl 4×substrate, 2.5 μl 4×enzyme solution, 2.5 μl 1×Kinase Assay Buffer and 2.5 μl ultrapure water containing 4% DMSO were added to each well.
6) Mixed by centrifugation and kept at room temperature for 2 hours in the dark.
7) Termination of the enzymatic reaction:
5 μl of the above 4× stop solution was pipetted to the corresponding wells of the 384-well plate, centrifuged and mixed, and reacted at room temperature for 5 minutes.
5 μl of the above 4× detection solution was pipetted into the corresponding wells of the 384-well plate, centrifuged and mixed, and reacted at room temperature for 1 hour.
9) The 384-well plate was placed into a microplate reader and the signal was detected using the corresponding program.
10) IC50 analysis: Well reading value=10000*EU665 value/EU615 value Inhibition rate=(reading value of positive control well−reading value of experimental well)/(reading value of positive control well−reading value of negative control well)*100% Corresponding IC50s can be calculated by entering the drug concentrations and the corresponding inhibition rates into GraphPad Prism 5.
Conditions of experiment for screening EGFR kinase inhibitory molecules:
The final concentration of EGFR kinase in the reaction system is 0.35 nM, and the final concentration of ATP is 150 μM, the final concentration of substrate ULight™-labeled JAK-1 (Tyr1023) Peptide is 100 nM, and the enzymatic reaction time is 2 hours.
The maximum final concentration of the compound in the reaction system is 2.5 μM, 11 concentrations were made with a 3-fold gradient dilution, and the minimal final concentration is 0.042 nM. The final concentration of DMSO is 1%.

SMILES	IC50 (BT474 cells) [nM]	IC50 (HER2 kinase) [nM]	IC50 (HCC827 cells) [nM]	IC50 (EGFR kinase) [nM]
O=C(/C=C/CN1CCOCC1)N1CCOc2c1ccc1ncnc(Nc3ccc(OCc4ccccn4)c(Cl)c3)c21 [Example 103, (E)-1-(10-((3-chloro-4-(pyridin-2-ylmethoxy)phenyl)amino)-2,3-dihydro-4H-[1,4]oxazino[2,3-f]quinazolin-4-yl)-4-morpholinobut-2-en-1-one]	≤ 50	≤ 50	50 to 500	
COc1cccc(COc2ccc(Nc3ncnc4ccc5c(c34)OCCN5C(=O)/C=C/CN(C)C)cc2)c1 [Example 86, (E)-4-(dimethylamino)-1-(10-((4-((3-methoxybenzyl)oxy)phenyl)amino)-2,3-dihydro-4H-[1,4]oxazino[2,3-f]quinazolin-4-yl)but-2-en-1-one]	≤ 50	≤ 50	500 to 5000	
O=C(/C=C/CNC1CCC1)N1CCOc2c1ccc1ncnc(Nc3ccc(OCc4ccccn4)c(Cl)c3)c21 [Example 109, (E)-1-(10-((3-chloro-4-(pyridin-2-ylmethoxy)phenyl)amino)-2,3-dihydro-4H-[1,4]oxazino[2,3-f]quinazolin-4-yl)-4-(cyclobutylamino)but-2-en-1-one]	≤ 50	≤ 50	50 to 500	
O=C(/C=C/CNC1CC1)N1CCOc2c1ccc1ncnc(Nc3ccc(OCc4ccccn4)c(Cl)c3)c21 [Example 101, (E)-1-(10-((3-chloro-4-(pyridin-2-ylmethoxy)phenyl)amino)-2,3-dihydro-4H-[1,4]oxazino[2,3-f]quinazolin-4-yl)-4-(cyclopropylamino)but-2-en-1-one]		50 to 500	500 to 5000	
Cc1cccc(COc2ccc(Nc3ncnc4ccc5c(c34)OCCN5C(=O)/C=C/CN(C)C)cc2)c1 [Example 84, (E)-4-(dimethylamino)-1-(10-((4-((3-methylbenzyl)oxy)phenyl)amino)-2,3-dihydro-4H-[1,4]oxazino[2,3-f]quinazolin-4-yl)but-2-en-1-one]	≤ 50	≤ 50	50 to 500	
Cc1ccc(COc2ccc(Nc3ncnc4ccc5c(c34)OCCN5C(=O)/C=C/CN(C)C)cc2)cc1 [Example 88, (E)-4-(dimethylamino)-1-(10-((4-((4-methylbenzyl)oxy)phenyl)amino)-2,3-dihydro-4H-[1,4]oxazino[2,3-f]quinazolin-4-yl)but-2-en-1-one]	≤ 50	≤ 50	500 to 5000	
CN(C)C/C=C/C(=O)N1CCOc2c1ccc1ncnc(Nc3ccc(OCc4cc(F)ccc4Cl)cc3)c21 [Example 90, (E)-1-(10-((4-((2-chloro-5-fluorobenzyl)oxy)phenyl)amino)-2,3-dihydro-4H-[1,4]oxazino[2,3-f]quinazolin-4-yl)-4-(dimethylamino)but-2-en-1-one]	≤ 50	≤ 50	500 to 5000	
CN(C)C/C=C/C(=O)N1CCOc2c1ccc1ncnc(Nc3ccc(Sc4ccc(F)cc4)cc3)c21 [Example 70, (E)-4-(dimethylamino)-1-(10-((4-((4-fluorophenyl)thio)phenyl)amino)-2,3-dihydro-4H-[1,4]oxazino[2,3-f]quinazolin-4-yl)but-2-en-1-one]	≤ 50	≤ 50		≤ 50

Continued, values first:

IC50 (BT474 cells) [nM]	IC50 (HER2 kinase) [nM]	IC50 (HCC827 cells) [nM]	IC50 (EGFR kinase) [nM]	SMILES
≤ 50	≤ 50	50 to 500		CN1CCC[C@H]1/C=C/C(=O)N1CCOc2c1ccc1ncnc(Nc3ccc(OCc4ccccn4)c(Cl)c3)c21 [Example 112, (S,E)-1-(10-((3-chloro-4-(pyridin-2-ylmethoxy)phenyl)amino)-2,3-dihydro-4H-[1,4]oxazino[2,3-f]quinazolin-4-yl)-3-(1-methylpyrrolidin-2-yl)prop-2-en-1-one]
≤ 50	≤ 50	50 to 500		CC1(O)CCN(C/C=C/C(=O)N2CCOc3c2ccc2ncnc(Nc4ccc(OCc5ccccn5)c(Cl)c4)c32)CC1 [Example 116, (E)-1-(10-((3-chloro-4-(pyridin-2-ylmethoxy)phenyl)amino)-2,3-dihydro-4H-[1,4]oxazino[2,3-f]quinazolin-4-yl)-4-(4-hydroxyl-4-methylpiperidin-1-yl)but-2-en-1-one]
≤ 50	≤ 50		50 to 500	Cc1cc(Nc2ncnc3ccc4c(c23)OCCN4C(=O)/C=C/CN(C)C2CCC2)ccc1Oc1ccn2ncnc2c1 [Example 135, (E)-1-(10-((4-([1,2,4]triazolo[1,5-a]pyridin-7-yloxy)-3-methylphenyl)amino)-2,3-dihydro-4H-[1,4]oxazino[2,3-f]quinazolin-4-yl)-4-(cyclobutyl(methyl)amino)but-2-en-1-one]
≤ 50	≤ 50		50 to 500	O=C(/C=C/CN1CCCCC1)N1CCOc2c1ccc1ncnc(Nc3ccc(Oc4ccn5ncnc5c4)c(Cl)c3)c21 [Example 128, (E)-1-(10-((4-([1,2,4]triazolo[1,5-a]pyridin-7-yloxy)-3-chlorophenyl)amino)-2,3-dihydro-4H-[1,4]oxazino[2,3-f]quinazolin-4-yl)-4-(piperidin-1-yl)but-2-en-1-one]
≤ 50	≤ 50		50 to 500	CN(C/C=C/C(=O)N1CCOc2c1ccc1ncnc(Nc3ccc(Oc4ccn5ncnc5c4)c(Cl)c3)c21)C1CCC1 [Example 129, (E)-1-(10-((4-([1,2,4]triazolo[1,5-a]pyridin-7-yloxy)-3-chlorophenyl)amino)-2,3-dihydro-4H-[1,4]oxazino[2,3-f]quinazolin-4-yl)-4-(cyclobutyl(methyl)amino)but-2-en-1-one]
≤ 50	≤ 50		500 to 5000	CCN(CC)C/C=C/C(=O)N1CCOc2c1ccc1ncnc(Nc3ccc(Oc4ccn5ncnc5c4)c(C)c3)c21 [Example 137, (E)-1-(10-((4-([1,2,4]triazolo[1,5-a]pyridin-7-yloxy)-3-methylphenyl)amino)-2,3-dihydro-4H-[1,4]oxazino[2,3-f]quinazolin-4-yl)-4-(diethylamino)but-2-en-1-one]
≤ 50	≤ 50		50 to 500	COCCN(C)C/C=C/C(=O)N1CCOc2c1ccc1ncnc(Nc3ccc(Oc4ccn5ncnc5c4)c(C)c3)c21 [Example 136, (E)-1-(10-((4-([1,2,4]triazolo[1,5-a]pyridin-7-yloxy)-3-methylphenyl)amino)-2,3-dihydro-4H-[1,4]oxazino[2,3-f]quinazolin-4-yl)-4-((2-methoxyethyl)(methyl)amino)but-2-en-1-one]
≤ 50	≤ 50		50 to 500	CN(C)C/C=C/C(=O)N1CCOc2c1ccc1ncnc(Nc3ccc(Oc4ccn5ncnc5c4)c(Cl)c3)c21 [Example 125, (E)-1-(10-((4-([1,2,4]triazolo[1,5-a]pyridin-7-yloxy)-3-chlorophenyl)amino)-2,3-dihydro-4H-[1,4]oxazino[2,3-f]quinazolin-4-yl)-4-(dimethylamino)but-2-en-1-one]
